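Each compound was tested at five concentrations against cells in 96-well plates for 48 hours. Abbreviation: GI50, concentration required for 50% inhibition of growth.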 Active and inactive are the calls of the source. Rule as the data show it: active = GI50 up to about 1.1 µM and inactive = higher.
Key:
Experiment in all cases: NCI anticancer screen, dose series, 48 h
786-0 = tested on: 786-0
A498 = tested on: A498
A549 = tested on: A549
ACHN = tested on: ACHN
BT-549 = tested on: BT-549
CAKI-1 = tested on: CAKI-1
CCRF-CEM = tested on: CCRF-CEM
COLO 205 = tested on: COLO 205
DU-145 = tested on: DU-145
EKVX = tested on: EKVX
HCC 2998 = tested on: HCC 2998
HCT-116 = tested on: HCT-116
HCT-15 = tested on: HCT-15
HL-60 = tested on: HL-60
HOP-62 = tested on: HOP-62
HOP-92 = tested on: HOP-92
HT-29 = tested on: HT-29
Hs-578T = tested on: Hs-578T
IGROV-1 = tested on: IGROV-1
K562 = tested on: K562
KM12 = tested on: KM12
LOX IMVI = tested on: LOX IMVI
M14 = tested on: M14
MCF7 = tested on: MCF7
MDA-MB-231 = tested on: MDA-MB-231
MDA-MB-435 = tested on: MDA-MB-435
MDA-N = tested on: MDA-N
MOLT-4 = tested on: MOLT-4
Malme-3M = tested on: Malme-3M
NCI-H226 = tested on: NCI-H226
NCI-H23 = tested on: NCI-H23
NCI-H460 = tested on: NCI-H460
NCI-H522 = tested on: NCI-H522
NCI/ADR-RES = tested on: NCI/ADR-RES
OVCAR-3 = tested on: OVCAR-3
OVCAR-4 = tested on: OVCAR-4
OVCAR-5 = tested on: OVCAR-5
OVCAR-8 = tested on: OVCAR-8
PC-3 = tested on: PC-3
RPMI-8226 = tested on: RPMI-8226
RXF 393 = tested on: RXF 393
SF-268 = tested on: SF-268
SF-295 = tested on: SF-295
SF-539 = tested on: SF-539
SK-MEL-28 = tested on: SK-MEL-28
SK-MEL-2 = tested on: SK-MEL-2
SK-MEL-5 = tested on: SK-MEL-5
SK-OV-3 = tested on: SK-OV-3
SN12C = tested on: SN12C
SNB-19 = tested on: SNB-19
SNB-75 = tested on: SNB-75
SR = tested on: SR
SW-620 = tested on: SW-620
T47D = tested on: T47D
TK-10 = tested on: TK-10
U-251 = tested on: U-251
UACC-257 = tested on: UACC-257
UACC-62 = tested on: UACC-62
UO-31 = tested on: UO-31

## O=c1ssc2c1Nc1c(ssc1=O)S2
786-0
  GI50: 3.87 µM (inactive)
A498
  GI50: 11.9 µM (inactive)
A549
  GI50: 19.2 µM (inactive)
ACHN
  GI50: 16.6 µM (inactive)
BT-549
  GI50: 25.3 µM (inactive)
CAKI-1
  GI50: 17.9 µM (inactive)
CCRF-CEM
  GI50: 2.05 µM (inactive)
COLO 205
  GI50: 18 µM (inactive)
DU-145
  GI50: 13.4 µM (inactive)
EKVX
  GI50: 15.4 µM (inactive)
HCC 2998
  GI50: 15.1 µM (inactive)
HCT-116
  GI50: 15.4 µM (inactive)
HCT-15
  GI50: 11.4 µM
HL-60
  GI50: 4.48 µM (inactive)
HOP-62
  GI50: 18.5 µM (inactive)
HOP-92
  GI50: 15 µM (inactive)
HT-29
  GI50: 24.3 µM (inactive)
Hs-578T
  GI50: 33.7 µM (inactive)
IGROV-1
  GI50: 13.2 µM (inactive)
K562
  GI50: 8 µM (inactive)
KM12
  GI50: 14.4 µM (inactive)
LOX IMVI
  GI50: 5.37 µM (inactive)
M14
  GI50: 11.7 µM (inactive)
MCF7
  GI50: 16.4 µM (inactive)
MDA-MB-231
  GI50: 23.4 µM (inactive)
MDA-MB-435
  GI50: 18.5 µM (inactive)
MDA-N
  GI50: 16.1 µM (inactive)
MOLT-4
  GI50: 9.51 µM (inactive)
Malme-3M
  GI50: 5.9 µM (inactive)
NCI-H226
  GI50: 23.4 µM (inactive)
NCI-H23
  GI50: 18.7 µM (inactive)
NCI-H460
  GI50: 17.3 µM (inactive)
NCI-H522
  GI50: 8.28 µM (inactive)
NCI/ADR-RES
  GI50: 19.6 µM (inactive)
OVCAR-3
  GI50: 17.4 µM (inactive)
OVCAR-4
  GI50: 14.4 µM (inactive)
OVCAR-5
  GI50: 17 µM (inactive)
OVCAR-8
  GI50: 14.8 µM (inactive)
PC-3
  GI50: 12.6 µM (inactive)
RPMI-8226
  GI50: 5.04 µM (inactive)
RXF 393
  GI50: 4.42 µM (inactive)
SF-268
  GI50: 16.2 µM (inactive)
SF-295
  GI50: 27.7 µM (inactive)
SF-539
  GI50: 7.21 µM (inactive)
SK-MEL-28
  GI50: 18.5 µM (inactive)
SK-MEL-2
  GI50: 16.1 µM (inactive)
SK-MEL-5
  GI50: 15.7 µM (inactive)
SK-OV-3
  GI50: 19.5 µM (inactive)
SN12C
  GI50: 14.4 µM (inactive)
SNB-19
  GI50: 17.9 µM (inactive)
SNB-75
  GI50: 16.5 µM (inactive)
SR
  GI50: 1.96 µM (inactive)
SW-620
  GI50: 8.61 µM (inactive)
T47D
  GI50: 10.7 µM (inactive)
TK-10
  GI50: 16 µM (inactive)
U-251
  GI50: 16.4 µM (inactive)
UACC-257
  GI50: 14.6 µM (inactive)
UACC-62
  GI50: 14 µM (inactive)
UO-31
  GI50: 11.4 µM (inactive)

## CCCCC1Cc2cc(OC)ccc2-c2n1c1cc(OC)ccc1[n+]2C.CCCCC1Cc2cc(OC)ccc2-c2n1c1ccc(OC)cc1[n+]2C (stereo not drawn)
786-0
  GI50: 7.13 µM (inactive)
A498
  GI50: 16.9 µM (inactive)
A549
  GI50: 1.48 µM (inactive)
ACHN
  GI50: 12.6 µM (inactive)
BT-549
  GI50: 1.66 µM (inactive)
CAKI-1
  GI50: 35.8 µM (inactive)
CCRF-CEM
  GI50: 2.64 µM (inactive)
COLO 205
  GI50: 0.401 µM (active)
DU-145
  GI50: 5.32 µM (inactive)
EKVX
  GI50: 0.466 µM (active)
HCC 2998
  GI50: 0.703 µM (active)
HCT-116
  GI50: 3.22 µM (inactive)
HCT-15
  GI50: 21.7 µM
HL-60
  GI50: 0.261 µM (active)
HOP-62
  GI50: 6.08 µM (inactive)
HOP-92
  GI50: 0.427 µM (active)
HT-29
  GI50: 1.97 µM (inactive)
Hs-578T
  GI50: 2.77 µM (inactive)
IGROV-1
  GI50: 1.6 µM (inactive)
K562
  GI50: 0.475 µM (active)
KM12
  GI50: 0.873 µM (active)
LOX IMVI
  GI50: 2.87 µM (inactive)
M14
  GI50: 3.76 µM (inactive)
MCF7
  GI50: 0.953 µM (active)
MDA-MB-231
  GI50: 2.63 µM (inactive)
MDA-MB-435
  GI50: 0.944 µM (active)
MDA-N
  GI50: 1.47 µM (inactive)
MOLT-4
  GI50: 4.79 µM (inactive)
Malme-3M
  GI50: 0.935 µM (active)
NCI-H226
  GI50: 2.92 µM (inactive)
NCI-H23
  GI50: 0.839 µM (active)
NCI-H460
  GI50: 3.65 µM (inactive)
NCI-H522
  GI50: 0.681 µM (active)
NCI/ADR-RES
  GI50: > 100 µM (inactive)
OVCAR-3
  GI50: 1.4 µM (inactive)
OVCAR-4
  GI50: 2.31 µM (inactive)
OVCAR-5
  GI50: 9.77 µM (inactive)
OVCAR-8
  GI50: 2.75 µM (inactive)
PC-3
  GI50: 2.6 µM (inactive)
RPMI-8226
  GI50: 0.221 µM (active)
RXF 393
  GI50: 14.2 µM (inactive)
SF-268
  GI50: 1.3 µM (inactive)
SF-295
  GI50: 2.39 µM (inactive)
SF-539
  GI50: 3.34 µM (inactive)
SK-MEL-28
  GI50: 6.3 µM (inactive)
SK-MEL-2
  GI50: 2.46 µM (inactive)
SK-MEL-5
  GI50: 0.764 µM (active)
SK-OV-3
  GI50: 10 µM (inactive)
SN12C
  GI50: 0.975 µM (active)
SNB-19
  GI50: 0.904 µM (active)
SNB-75
  GI50: 6.19 µM (inactive)
SR
  GI50: 2.44 µM (inactive)
SW-620
  GI50: 2.82 µM (inactive)
T47D
  GI50: 0.656 µM (active)
TK-10
  GI50: 2.18 µM (inactive)
U-251
  GI50: 0.332 µM (active)
UACC-257
  GI50: 1.04 µM (active)
UACC-62
  GI50: 0.528 µM (active)
UO-31
  GI50: 15.5 µM (inactive)

Source: ChEMBL document CHEMBL1201862, “PubChem BioAssay data set” (2004)
